Molecules are shown by their SMILES.

Common to all, as to assay type: functional
The species entered for test [1] is Cavia porcellus. The test can be described thus: Inhibition of twitches in guinea pig ileum.
Test [2] is filed under the species Cavia porcellus. The test can be described thus: Inhibition of electrically evoked twitches in guinea pig ileum relative to morphine.
A further test is filed under the species Mus musculus. In words: Analgesic activity in mice by using hot plate method. (In hot-plate and tail-flick tests a longer latency is read as antinociception.)

Usually IC50 stands for the point on the concentration scale where inhibition reaches its midpoint. In turn, `CSCC[C@H](NC(=O)[C@H](Cc1ccccc1)NC(=O)CNC(=O)[C@@H](C)NC(=O)[C@@H](N)Cc1ccc(O)cc1)C(N)=O` came in with an IC50 in the test listed under Cavia porcellus [1] of 2.5 nM. The Relative potency in the test listed under Cavia porcellus [2] stood at 30.
In the case of `C[C@H](N)C(=O)N[C@H](C)C(=O)N[C@@H](Cc1ccccc1)C(=O)NCC(=O)N[C@@H](Cc1ccc(O)cc1)C(=O)N1CCC[C@H]1C(=O)N[C@@H](CO)C(N)=O`, the ED50 in the test listed under Mus musculus turned out to be 6.1e-05 M/kg. In the test listed under Cavia porcellus [2], this molecule returned a Relative potency of 0.0017.
In the test listed under Mus musculus, `COc1ccc(C[C@H](N)C(=O)N[C@H](C)C(=O)N[C@@H](Cc2ccccc2)C(=O)NCC(=O)N[C@@H](Cc2ccc(O)cc2)C(=O)N2CCC[C@H]2C(=O)N[C@@H](CO)C(N)=O)cc1` returned an ED50 of 6e-05 M/kg. The Relative potency in the test filed under Cavia porcellus [2] is 40.5.
In the test filed under Mus musculus, `CC(=O)N[C@@H](Cc1ccc(O)cc1)C(=O)N[C@H](C)C(=O)N[C@@H](Cc1ccccc1)C(=O)NCC(=O)N[C@@H](Cc1ccc(O)cc1)C(=O)N1CCC[C@H]1C(=O)N[C@@H](CO)C(N)=O` showed an ED50 above 0.001 M/kg. In the test listed under Cavia porcellus [2], this molecule yielded a Relative potency of 0.0044.
For the molecule `CN1CC[C@]23c4c5ccc(O)c4O[C@H]2[C@@H](O)C=C[C@H]3[C@H]1C5` [MORPHINE], the ED50 in the test filed under Mus musculus was 1.7e-06 M/kg.
In the test listed under Cavia porcellus [1], `C[C@@H](NC(=O)[C@@H](N)Cc1ccc(O)cc1)C(=O)N[C@@H](Cc1ccccc1)C(=O)NCC(=O)N[C@@H](Cc1ccc(O)cc1)C(=O)N1CCC[C@H]1C(=O)N[C@@H](CO)C(N)=O` [DERMORPHIN] came in with an IC50 of 0.052 nM. The ED50 in the test listed under Mus musculus was found to be 9.5e-07 M/kg. In addition, the Relative potency in the test filed under Cavia porcellus [2] is 1440.
Molecule `C[C@@H](NC(=O)[C@H](N)Cc1ccccc1)C(=O)N[C@@H](Cc1ccccc1)C(=O)NCC(=O)N[C@@H](Cc1ccc(O)cc1)C(=O)N1CCC[C@H]1C(=O)N[C@@H](CO)C(N)=O` gave an ED50 in the test filed under Mus musculus above 0.001 M/kg. In the test filed under Cavia porcellus [2], this molecule gave a Relative potency of 0.0042.
In the case of `C[C@@H](NC(=O)[C@@H](N)Cc1ccccc1)C(=O)N[C@@H](Cc1ccccc1)C(=O)NCC(=O)N[C@@H](Cc1ccc(O)cc1)C(=O)N1CCC[C@H]1C(=O)N[C@@H](CO)C(N)=O`, the ED50 in the test filed under Mus musculus was 1.55e-05 M/kg. Further, in the test listed under Cavia porcellus [2], the Relative potency amounted to 0.026.

For the origin of these results see ChEMBL document CHEMBL1122436, “Structure-activity studies of dermorphin. Synthesis and some pharmacological data of dermorphin and its 1-substituted analogues” (J Med Chem, 1983).
